Values quoted from earlier work as cited in PMC3420346 (Bioorganic & medicinal chemistry, 2012).

Experiments:
[1] = compared with related 9-riboside derivatives

CNc1nc(I)nc2c1ncn2[C@H]1C[C@H](OP(=O)(O)O)[C@]2(COP(=O)(O)O)C[C@H]12 [Compound 1, (1′R,2′S,4′S,5′S)-4-(2-iodo-6-methylamino-purin-9-yl)-1-[(phosphato)-methyl]-2-(phosphato)-bicyclo[3.1.0]hexane]
Reduction of thrombus formation in vivo (thrombus formation): effective in reducing thrombus formation in vivo | Resistance to degradation [1]: more resistant to degradation than related 9-riboside derivatives
